According to publication PMC12731536, “Sc(III) Complexes of Pyclen Derivative Ligands as Probes for Hypoxia: Synthesis, Chemical Characterization, ^44Sc‐Radiolabeling, and Preclinical Assessment” (Chemistry (Weinheim an Der Bergstrasse, Germany), 2025):

Tests used:
[1] = Stability constants of Sc(III) complexes, out‐of‐cell (batch) samples, 45Sc NMR; assay type: physicochemical; conditions: I = 1.00 M NaCl; for pSc: pSc = ‐log[Sc(III)]free, cSc(III) = 1x10^−8 M, clig = 1x10^−7 M; for log K ScL: stability constant of the Sc(III) complex, T = 25 °C
Procedure: The stability constant of the complex of PC2AM^nBu ligand formed with Sc(III) ion was studied using “out‐of‐cell” (batch) samples using ^45Sc NMR spectroscopy in strongly acidic media. Typical ^45Sc NMR spectra are shown in Figure 5 along with the corresponding ^1H NMR spectra of the aromatic region of the ligand.
Using the ^45Sc NMR signal intensities of free Sc^3+ measured in the equilibrated samples, the stability constant, K ScL, was calculated by fitting the areas with the PSEQUAD program ^[ [47] ^] (Figure 6). The best fitting was observed by considering the simplest model including only [Sc(PC2AM^nBu)]^+ species; that is, the formation of protonated [Sc(HPC2AM^nBu)]^2+ cannot be confirmed.
The stability constant of the [Sc(PCTA)] complex was determined in a similar way (Figure S13). The results were summarized in Table 2, including the data of [Sc(DO3AM‐NI)], determined in our previous study.^[ [33] ^]
Among the complexes shown in Table 2, the [Sc(DO3AM‐NI)] complex has the highest stability, but its stability constant is lower than the corresponding values of [Sc(DOTA)]^− (log K ScL = 30.79) and [Sc(DTPA)]^2− (log K ScL = 27.43). ^[ [49] ^] As evidenced for DO3AM‐mono(amide) the replacement of acetate side chains with amide groups results in a decrease in stability constant (and conditional stability); therefore, we can see an order of magnitude difference between the stabilities of [Sc(PCTA)] and [Sc(PC2AM^nBu)]^+. Although these K ScL constants and pSc values are somewhat lower than those of the complexes formed with traditional DOTA and DTPA ligands, these chelators remain remarkably good Sc(III)‐binding chelators. […] Therefore, following the proposal of M. Meyer and colleagues,^[ [48] ^] […] For the AL/M values, 1 corresponds to 90%, 2 corresponds to 99%, 3 corresponds to 99.9% etc. for complex formation. […] The AL/M data of the [Sc(PC2AM^nBu)]^+ complex only exceeds that of the [Sc(DO3AM‐NI)] complex in the pH < 3.0 range, which can be advantageous for labeling at low pH. Furthermore, based on the data in Table 2, it can be concluded that for these systems there is no discrepancy between the trends observed in the pSc and AL/M values.
The stability constant of [Sc(PC2AM^nBu)]^+ and [Sc(PCTA)] complexes was studied using “out‐of‐cell” (batch) samples using ^45Sc and ^1H NMR spectroscopy. The NMR spectra were obtained using a Bruker Avance II DRX spectrometer (9.4 T), equipped with Bruker Variable Temperature Unit, Bruker Cooling Unit, and a 5 mm BB inverse z gradient probe. For the investigation of [Sc(PC2AMnBu)]⁺, twelve samples (cSc(III) = 3.00 mM, cligand = 3.06 mM, in the pH range of –log[H^+] = 0.1–1.3; I = 1.0 M NaCl/HCl) were prepared in NMR tubes and kept at 25 °C for one week to reach equilibrium. During this period, ^1H and ^45Sc NMR measurements were performed daily to monitor changes in signal intensities. No significant changes were detected after one week, even in the most acidic sample. The intensities of the free Sc(III) signals were normalized using a standard 50 mM ScCl3 solution containing 1 M HCl (20% D2O). For the determination of the stability of the [Sc(PCTA)] complex, eleven “batch” samples (cSc(III) = 4.00 mM, cligand = 4.08 mM), in the pH range of –log[H^+] = 0.1–1.25, were prepared. The evaluation of the measured data was performed using the PSEQUAD program.^[ [47] ^] Samples were prepared in H2O, with 10% D2O added for deuterium lock. The actual resonance frequencies for ^1H, ^13C, ^19F, and ^45Sc are indicated in the text and figure captions. The chemical shifts of ^1H and ^13C were calibrated using an external TMS standard, while ^19F was referenced to CCl3F. The ^45Sc NMR shift was calibrated to 0 ppm using a 5 mM solution of ScCl3 in 0.1 M HCl.

[2] = Acid‐assisted dissociation (decomplexation) of Sc(III) complexes, UV spectroscopy; assay type: physicochemical
Excerpt: The inertness of metal complexes is a basic requirement in all relevant modalities of medical imaging. Complexes of macrocyclic ligands are often more inert compared to open‐chain analogs. In order to assess the behavior of our complexes, the decomplexation of [Sc(PC2AM^nBu)]^+ and [Sc(PCTA)] was studied in a strongly acidic medium (cH + = 1.6 ‐ 2.6 M HClO4) by using UV spectroscopy. […] The primary Abs. versus time curves have been fitted by monoexponential function returning kobs (s^−1) values (Figures S22 and S23).
The plots of the rate constants as a function of acid concentration yielded linear relationships for both complexes (k obs = k 0 + k 1[H^+]). The slopes of these lines correspond to the rate coefficients characteristic for acid‐assisted dissociation (k 1), whereas the intercepts characterize the acid‐independent part, often referred to as a rate of spontaneous dissociation. […] The rate coefficients obtained during the fitting are summarized in Table 3, along with the half‐lives calculated from the rate coefficients by using 1 M acid concentration (t ½ = ln 2 / k obs).
Kinetic studies of the dissociation of the [Sc(PC2AMnBu)]^+ and [Sc(PCTA)] complexes were carried out by examining the dependence of the dissociation rates on acid concentration. Spectrophotometric measurements were conducted on a JASCO V‐760 spectrophotometer at λ = 280 nm. The concentration of the complex in the sample was 0.30 mM, and HClO4 was applied in concentrations ranging from 1.6 to 2.6 M. The evaluation of the measured data was performed with Scientist software ^[ [62] ^] to determine the k 0 (spontaneous) and k 1 (acid‐assisted) reaction rates.

[3] = dissociation of the Sc(III) complex, 1.6‐2.6 M HClO4, 25 °C, I = 2.6 M

SMILES	AL/M (relative affinity) ([1]; [Sc(III)]total = 10 nM, [L]tot = 100 nM, pH = 7.4)	pSc ([1]; pH = 7.4)	log K ScL [1]	k 0 (spontaneous dissociation) [2, 3]	k 1 (acid‐assisted dissociation) [2, 3]	t 1/2 of dissociation (1 M H^+) ([2]; calculated from rate coefficients at 1 M acid concentration, 25 °C) [days]
O=C(O)CN1CCN(CC(=O)O)Cc2cccc(n2)CN(CC(=O)O)CC1 [PCTA, reference compound]	7.14	21.28	22.41(9)	(4.21 ± 0.81) x 10^−6 s^−1	(2.11 ± 0.38) x 10^−6 M^−1s^−1	–
CCCCNC(=O)CN1CCN(CC(=O)[O-])Cc2cccc(n2)CN(CC(=O)[O-])CC1.[Sc+3] [[Sc(PC2AM^nBu)]^+]	–	19.32	19.53(4)	–	–	22
